Test results: patent US10703746B2, “Mutant IDH1 inhibitors useful for treating cancer” (THE UNITED STATES OF AMERICA, AS REPRESENTED BY THE …, priority 2014, dated 2020)

Columns and labels:
IDH1 R132H = IDH1 R132H (Homo sapiens, UniProt O75874, R132H); assay: IDH1 R132H enzymatic assay (NADPH depletion coupled to diaphorase/resazurin); type: biochemical
IDH1 R132C = IDH1 R132C (Homo sapiens, UniProt O75874, R132C); assay: IDH1 R132C enzymatic assay (NADPH depletion coupled to diaphorase/resazurin); type: biochemical
Sequence of IDH1 R132C (O75874 whole entry R132C): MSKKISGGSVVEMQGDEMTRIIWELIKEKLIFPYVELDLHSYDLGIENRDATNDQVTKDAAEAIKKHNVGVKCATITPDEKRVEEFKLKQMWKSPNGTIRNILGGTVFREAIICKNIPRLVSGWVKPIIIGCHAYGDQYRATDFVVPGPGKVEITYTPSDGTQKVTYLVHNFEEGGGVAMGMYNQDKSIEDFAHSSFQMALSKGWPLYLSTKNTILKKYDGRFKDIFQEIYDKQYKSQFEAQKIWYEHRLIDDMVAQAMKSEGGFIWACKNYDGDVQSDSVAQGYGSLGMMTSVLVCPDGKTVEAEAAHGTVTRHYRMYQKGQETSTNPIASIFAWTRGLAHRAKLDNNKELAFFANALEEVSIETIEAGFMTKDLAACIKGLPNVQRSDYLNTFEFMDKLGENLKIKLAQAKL
Method in brief: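 NADPH depletion, read via diaphorase/resazurin coupling, after adding substrate at 0.6 mM α-KG and 0.012 mM NADPH. Beforehand, 0.00032 mg/mL enzyme sat with compound 30 min at room temperature in pH 6.5 potassium phosphate buffer with MgCl2, glycerol and BSA.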

[1] = IDH1 R132H enzymatic inhibition, IC50 class
[2] = IDH1 R132C enzymatic inhibition, IC50 class
[3] = enzymatic inhibition, IDH1 R132H
[4] = enzymatic inhibition, IDH1 R132C

Sequence of IDH1 R132H (O75874 whole entry R132H): as the sequence (O75874 whole entry R132C) above, with C132H counted along it

Structure (SMILES) | IC50 (IDH1 R132H; [1]) | IC50 (IDH1 R132C; [2]) | IC50 (IDH1 R132H; [3]) | IC50 (IDH1 R132C; [4])
CC(C)c1ccccc1-n1c2c(cc(-c3nc(-c4ccc(Cl)cc4)cs3)c1=O)C(=O)CC(C)(C)C2 [Compound 178] | 300 to 1000 nM | 300 to 1000 nM | – | –
CCc1cccc(CC)c1-n1c(C=C(C)C)c(C(=O)N2CCNC(=O)C2(C)C)cc(-c2nc(-c3ccc(Cl)cc3)cs2)c1=O [Compound 650] | < 300 nM | < 300 nM | – | –
CC1(C)CC(=O)c2cc(-c3nc(-c4ccc(Cl)cc4)cs3)c(=O)n(-c3ccccc3OCc3ccccc3)c2C1 [Compound 1] | > 20000 nM | 300 to 1000 nM | – | –
CCc1cccc(CC)c1-n1c(CC(C)C)c(C(=O)NC[C@H](NC(C)=O)C(=O)O)cc(-c2nc(-c3ccc(Cl)cc3)cs2)c1=O [Compound 140] | 5000 to 20000 nM | 5000 to 20000 nM | – | –
CCc1cccc(CC)c1-n1c(CC(C)C)c(C(=O)NCC(C)(C)O)cc(-c2nc(-c3ccc(Cl)cc3)cs2)c1=O [Compound 77] | 300 to 1000 nM | < 300 nM | – | –
CCc1cccc(CC)c1-n1c2c(cc(-c3nc(C4=CCNCC4)c(C)s3)c1=O)C(=O)CC(C)(C)C2 [Compound 298] | > 20000 nM | 5000 to 20000 nM | – | –
CC(C)COc1ccccc1-n1c2c(cc(-c3nc(-c4ccc(Cl)cc4)cs3)c1=O)C(=O)CC(C)(C)C2 [Compound 256] | 300 to 1000 nM | 300 to 1000 nM | – | –
CCc1ccc(N2CCN(C)CC2)c(CC)c1-n1c2c(cc(-c3nc(-c4ccc(Cl)cc4)cs3)c1=O)C(=O)CC(C)(C)C2 [Compound 406] | – | – | 5000 to 20000 nM | 5000 to 20000 nM
CCc1cccc(CC)c1-n1c(CC(C)C)c(C(=O)N2CCC(CO)C2)cc(-c2nc(-c3ccc(Cl)cc3)cs2)c1=O (stereo not shown) [Compound 89] | 1000 to 5000 nM | 300 to 1000 nM | – | –
CCOc1ccc(C)cc1-n1c(CC(C)C)c(C(=O)N2CCNCC2)cc(-c2nc(-c3ccc(C(F)F)cc3)cs2)c1=O [Compound 685] | < 300 nM | < 300 nM | – | –
CC1(C)CC(=O)c2cc(-c3nc(-c4ccc(Cl)cc4)cs3)c(=O)n(-c3ccccc3N)c2C1 [Compound 301] | 1000 to 5000 nM | 1000 to 5000 nM | – | –
O=C1CCCc2c1cc(-c1nc(-c3ccc(Cl)cc3)cs1)c(=O)n2-c1ccccc1CO [Compound 634] | > 20000 nM | 5000 to 20000 nM | – | –
CCOc1cccc(OCC)c1-n1c2c(cc(-c3nc(-c4ccc(Cl)cc4)cs3)c1=O)C(=O)CC(C)(C)C2 [Compound 609] | – | – | 300 to 1000 nM | 300 to 1000 nM
CCc1cccc(CC)c1-n1c(CC2CCNC2)c(C(=O)N2CCNCC2)cc(-c2nc(-c3ccc(Cl)cc3)cs2)c1=O (stereo not shown) [Compound 627] | 5000 to 20000 nM | 5000 to 20000 nM | – | –
CCc1cccc(CC)c1-n1c(CC(C)C)c(C(=O)N2CCNCC2)cc(-c2nc(-c3ccc(OC(C)C)cc3)c(C)s2)c1=O [Compound 257] | 300 to 1000 nM | < 300 nM | – | –
CCc1cccc(CC)c1-n1c(CC(C)C)c(C(=O)N2CCNCC2)cc(-c2nc(-c3ccc(C(N)=O)cc3)c(C)s2)c1=O [Compound 307] | 5000 to 20000 nM | 5000 to 20000 nM | – | –
O=C1CCCc2c1cc(-c1nc(-c3ccc(Cl)cc3)cs1)c(=O)n2-c1ccccc1CCO [Compound 590] | – | – | 5000 to 20000 nM | 5000 to 20000 nM

Structure (SMILES) | IC50 (IDH1 R132H; [1]) | IC50 (IDH1 R132C; [2]) | IC50 (IDH1 R132H; [3]) | IC50 (IDH1 R132C; [4])
CCc1ncc(F)cc1-n1c(C=C(C)C)c(C(=O)N2CCNCC2)cc(-c2nc(-c3ccc(Cl)cc3)cs2)c1=O [Compound 507] | – | – | < 300 nM | < 300 nM
CCc1cc(C)cc(CC)c1-n1c2c(cc(-c3nc(-c4ccc(Cl)cc4)cs3)c1=O)C(=O)CCC2 [Compound 531] | – | – | 5000 to 20000 nM | 1000 to 5000 nM
CCc1cccc(CC)c1-n1c(CC(C)C)c(C(=O)N2CCN[C@@H](C)C2)cc(-c2nc(-c3ccc(Cl)cc3)cs2)c1=O [Compound 141] | 300 to 1000 nM | < 300 nM | – | –
CCc1cccc(CC)c1-n1c(C(C)C)c(C(=O)N2CCNC(C(=O)OC)C2)cc(-c2nc(-c3ccc(Cl)cc3)cs2)c1=O (stereo not shown) [Compound 31] | 1000 to 5000 nM | 300 to 1000 nM | – | –
CCc1cccc(CC)c1-n1c(C(C)C)c(C(=O)N2CCN[C@H](C(=O)O)C2)cc(-c2nc(-c3ccc(Cl)cc3)cs2)c1=O [Compound 264] | 300 to 1000 nM | < 300 nM | – | –
CCc1cccc(CC)c1-n1c(CC(C)C)c(C(=O)N2CCNC(C(N)=O)C2)cc(-c2nc(-c3ccc(Cl)cc3)cs2)c1=O (stereo not shown) [Compound 48] | 300 to 1000 nM | < 300 nM | – | –
CC(C)=Cc1c(C(=O)N2CCNCC2)cc(-c2nc(-c3ccc(Cl)cc3)cs2)c(=O)n1-c1ccccc1Cl [Compound 449] | – | – | < 300 nM | < 300 nM
CCc1cccc(CC)c1-n1c(C=C(C)C)c(C(=O)N2CCNCC2)cc(-c2ccn(-c3ccc(C(F)(F)F)cc3)n2)c1=O [Compound 511] | – | – | < 300 nM | < 300 nM
CCc1cccc(CC)c1-n1c(CC(C)C)c(C(=O)N2CCNCC2)cc(-c2ccnc(-c3ccc(Cl)cc3)n2)c1=O [Compound 417] | – | – | 300 to 1000 nM | 300 to 1000 nM
COc1cccc(C(=O)O)c1-n1c2c(cc(-c3nc(-c4ccc(Cl)cc4)cs3)c1=O)C(=O)CC(C)(C)C2 [Compound 46] | 1000 to 5000 nM | 1000 to 5000 nM | – | –
CCc1cccc(CC)c1-n1c(C=C(C)C)c(C(=O)N2CCC3(CCNC3)C2)cc(-c2nc(-c3ccc(Cl)cc3)cs2)c1=O (stereo not shown) [Compound 320] | 300 to 1000 nM | < 300 nM | – | –
CCc1cccc(CC)c1-n1c(CC(C)C)c(C(=O)N2CCN[C@H](C(=O)O)C2)cc(-c2nc(-c3ccc(Cl)cc3)cs2)c1=O [Compound 189] | 300 to 1000 nM | < 300 nM | – | –
CCc1cccc(CC)c1-n1c2c(cc(-c3nc(-c4ccc(Cl)cc4)cs3)c1=O)C(=O)N1CCCCC21 (stereo not shown) [Compound 610] | – | – | 300 to 1000 nM | 300 to 1000 nM
CCc1cccc(CC)c1-n1c(C=C(C)C)c(C(=O)N2CCNCC2)cc(-c2nc(-c3ccc(C(F)F)cc3)cs2)c1=O [Compound 336] | < 300 nM | < 300 nM | – | –
CCOc1ccc(Cl)cc1-n1c(C=C(C)C)c(C(=O)N2CCNCC2)cc(-c2nc(-c3ccc(C(F)F)cc3)cs2)c1=O [Compound 378] | < 300 nM | < 300 nM | – | –
COc1cccc(F)c1-n1c(C=C(C)C)c(C(=O)N2CCNCC2)cc(-c2nc(-c3ccc(Cl)cc3)cs2)c1=O [Compound 556] | – | – | < 300 nM | < 300 nM
CCc1cccc(CC)c1-n1c(CC(C)C)c(C(=O)N2CCNCC2)cc(-c2nc(-c3ccc(Cl)cc3)c(C3CC3)s2)c1=O [Compound 385] | 300 to 1000 nM | < 300 nM | – | –

More lines, now with the values ahead:

IC50 (IDH1 R132H; [1]) | IC50 (IDH1 R132C; [2]) | IC50 (IDH1 R132H; [3]) | IC50 (IDH1 R132C; [4]) | Structure (SMILES)
300 to 1000 nM | 300 to 1000 nM | – | – | CCc1cccc(CC)c1-n1c(CC(C)C)c(C(=O)N2CCNCC2)cc(-c2nc(-c3ccc(Cl)cc3)co2)c1=O [Compound 340]
< 300 nM | 300 to 1000 nM | – | – | COc1ccc(Cl)c(-n2c(CC(C)C)c(C(=O)N3CCNCC3)cc(-c3nc(-c4ccc(Cl)cc4)cs3)c2=O)c1 [Compound 364]
< 300 nM | < 300 nM | – | – | CCc1cccc(CC)c1-n1c(C=C(C)C)c(C(=O)N2CCNC(C)C2C)cc(-c2nc(-c3ccc(Cl)cc3)cs2)c1=O (stereo not shown) [Compound 646]
1000 to 5000 nM | 1000 to 5000 nM | – | – | COc1cccc(C)c1-n1c2c(cc(-c3nc(-c4ccc(Cl)cc4)cs3)c1=O)C(=O)CC(C)(C)C2 [Compound 52]
5000 to 20000 nM | 5000 to 20000 nM | – | – | CCc1cccc(CC)c1-n1c2c(cc(C(=O)N(C)Cc3ccc(Cl)cc3)c1=O)C(=O)CC(C)(C)C2 [Compound 309]
5000 to 20000 nM | 5000 to 20000 nM | – | – | Cc1cc(CO)ccc1-n1c2c(cc(-c3nc(-c4ccc(Cl)cc4)cs3)c1=O)C(=O)CCC2 [Compound 342]
5000 to 20000 nM | 1000 to 5000 nM | – | – | CCc1cccc(CC)c1-n1c(C)c(C(=O)N2CCN[C@H](C(=O)OC)C2)cc(-c2nc(-c3ccc(Cl)cc3)cs2)c1=O [Compound 41]
– | – | 300 to 1000 nM | 300 to 1000 nM | CCc1cccc(CC)c1-n1c(CC(C)C)c(C(=O)N2CCNCC2)cc(-c2nc(-c3ccc(Cl)cc3)c(C(F)(F)F)s2)c1=O [Compound 430]
1000 to 5000 nM | 1000 to 5000 nM | – | – | CCc1cccc(CC)c1-n1c2c(cc(-c3nc(-c4cnn(C)c4)c(C)s3)c1=O)C(=O)CC(C)(C)C2 [Compound 239]
– | – | < 300 nM | < 300 nM | CCc1cccc(CC)c1-n1c(CC(C)C)c(C(=O)N2CCNC3(CCC3)C2)cc(-c2nc(-c3ccc(Cl)cc3)cs2)c1=O [Compound 465]
> 20000 nM | 1000 to 5000 nM | – | – | CCc1cccc(CC)c1-n1c(C)c(C(=O)NC2CCCC2)cc(-c2nc(-c3ccc(Cl)cc3)cs2)c1=O [Compound 7]
> 20000 nM | 5000 to 20000 nM | – | – | CCc1cccc(CC)c1-n1c(C)c(C(=O)OC)cc(-c2nc(-c3ccc(Cl)cc3)cs2)c1=O [Compound 268, methyl 5-(4-(4-chlorophenyl)thiazol-2-yl)-1-(2,6-diethylphenyl)-2-methyl-6-oxo-1,6-dihydropyridine-3-carboxylate]
1000 to 5000 nM | 1000 to 5000 nM | – | – | CCc1cccc(CC)c1-n1c2c(cc(-c3nc(-c4ccccc4Cl)cs3)c1=O)C(=O)CC(C)(C)C2 [Compound 213]
< 300 nM | < 300 nM | – | – | CC(C)=Cc1c(C(=O)N2CCNCC2)cc(-c2nc(-c3ccc(Cl)cc3)cs2)c(=O)n1-c1cc(Cl)ccc1Cl [Compound 359]
1000 to 5000 nM | 1000 to 5000 nM | – | – | Cc1ccc(CO)cc1-n1c2c(cc(-c3nc(-c4ccc(Cl)cc4)cs3)c1=O)C(=O)CCC2 [Compound 651]
– | – | 1000 to 5000 nM | 1000 to 5000 nM | COc1ccc(C(N)=O)cc1-n1c2c(cc(-c3nc(-c4ccc(Cl)cc4)cs3)c1=O)C(=O)CC(C)(C)C2 [Compound 423]
– | – | 300 to 1000 nM | 1000 to 5000 nM | CCc1ccc(Cl)c(CC)c1-n1c(C)c(C(=O)N2CCNCC2)cc(-c2nc(-c3ccc(Cl)cc3)cs2)c1=O [Compound 600]
300 to 1000 nM | < 300 nM | – | – | CCc1cccc(CC)c1-n1c(C=C(C)C)c(C(=O)N2CCNCC2CC(C)C)cc(-c2nc(-c3ccc(Cl)cc3)cs2)c1=O (stereo not shown) [Compound 621]
1000 to 5000 nM | 1000 to 5000 nM | – | – | Cc1cc(-n2c3c(cc(-c4nc(-c5ccc(Cl)cc5)cs4)c2=O)C(=O)CC(C)(C)C3)n(C)n1 [Compound 72]
